Experimental findings from publication PMC9007462 (Journal of Medicinal Chemistry, 2022) are described below.

As a reminder, the IC50 is the concentration that gives 50% inhibition. One may read the Ki as a dissociation constant, usually derived from enzyme kinetics or from competition with a known ligand. For orientation: Km means the substrate concentration at which the rate is half of its maximum.

The target in assay [1] is T1, Human ALDH1A3 (Homo sapiens, UniProt P47895).
T1 construct: made in house
T1 sequence (P47895 1-512): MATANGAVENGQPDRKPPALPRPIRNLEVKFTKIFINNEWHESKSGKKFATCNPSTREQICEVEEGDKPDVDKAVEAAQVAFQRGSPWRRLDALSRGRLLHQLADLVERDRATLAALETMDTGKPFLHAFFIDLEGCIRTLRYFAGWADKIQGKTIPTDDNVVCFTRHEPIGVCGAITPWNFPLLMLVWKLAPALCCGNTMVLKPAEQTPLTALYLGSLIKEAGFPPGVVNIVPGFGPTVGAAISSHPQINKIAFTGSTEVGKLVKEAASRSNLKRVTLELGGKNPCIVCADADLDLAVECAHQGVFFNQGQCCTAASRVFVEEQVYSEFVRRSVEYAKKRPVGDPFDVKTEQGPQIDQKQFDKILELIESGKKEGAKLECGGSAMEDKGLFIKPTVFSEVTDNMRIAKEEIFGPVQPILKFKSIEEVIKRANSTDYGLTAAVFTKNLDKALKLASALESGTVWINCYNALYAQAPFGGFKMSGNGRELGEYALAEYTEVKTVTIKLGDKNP
As to the kind of experiment: ALDH1A3 inhibition, IC50, Ki and type of inhibition. The class given is biochemical. The following applies: for IC50: 6 μM hexanal as substrate.

For assay [2], the target named is T2, Human ALDH3A1 (Homo sapiens, UniProt P30838).
T2 construct: made in house
T2 sequence (P30838 1-453): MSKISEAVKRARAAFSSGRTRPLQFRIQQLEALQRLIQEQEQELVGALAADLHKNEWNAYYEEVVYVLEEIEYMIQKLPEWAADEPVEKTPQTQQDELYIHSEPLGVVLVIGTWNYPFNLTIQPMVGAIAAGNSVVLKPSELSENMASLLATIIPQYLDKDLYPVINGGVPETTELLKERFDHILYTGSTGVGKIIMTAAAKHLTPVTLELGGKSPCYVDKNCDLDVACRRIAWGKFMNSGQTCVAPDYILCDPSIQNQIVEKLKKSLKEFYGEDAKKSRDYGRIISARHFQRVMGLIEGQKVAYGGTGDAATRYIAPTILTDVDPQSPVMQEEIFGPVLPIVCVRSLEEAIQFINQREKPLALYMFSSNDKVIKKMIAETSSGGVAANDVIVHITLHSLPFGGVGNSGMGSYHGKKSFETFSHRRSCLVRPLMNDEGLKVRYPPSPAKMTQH
As to the kind of experiment: DEAB analogues as substrates of ALDH3A1 (substrate activity and kinetics). It counts as biochemical. The following applies: for ALDH3A1 substrate activity: 10 μM compound as substrate, relative to activity with 10 μM 4-NBA (Figure S2). The method, then:
Human ALDH1A1, ALDH1A3, and ALDH3A1 were cloned and recombinantly expressed from the pET-30 Xa/LIC vector. Protein purification was achieved by affinity chromatography on a nickel-charged chelating Sepharose Fast Flow 5-mL column (His Trap column, Cytiva), which specifically binds the protein due to its N-terminal (His)6 tag, using an ÄKTA FPLC system (Cytiva), as previously described.[55] Enzymes including the His tag were stored at −80 °C in 20 mM Tris/HCl and 0.5 M NaCl, pH 8.0, until use. Reaction buffers were as follows: ALDH1A1 was assayed in 50 mM HEPES, 0.5 mM EDTA, and 0.5 mM DTT, pH 8.0; ALDH1A3 was assayed in 50 mM HEPES, 30 mM MgCl2, and 5 mM DTT, pH 8.0; and ALDH3A1 was assayed in 50 mM Tris–HCl and 5 mM DTT, pH 8.0. Activity under standard conditions was measured fluorimetrically at 25 °C using a Cary Eclipse (Varian) fluorimeter to follow the purification procedure and to check the enzyme concentration before each kinetic experiment. The fluorescence of NADH was characterized at 460 nm with excitation at 340 nm, and 5 μM NAD(P)H was added as an internal standard to obtain the absolute reaction rates.[55] Standard activity was measured at saturating concentrations of substrate using 30 μM hexanal (ALDH1A1), 250 μM hexanal (ALDH1A3), or 250 μM 4-NBA (ALDH3A1). NAD^+ was 500 μM for ALDH1A1 and ALDH1A3, and NADP^+ was 1 mM for ALDH3A1.
According to their structure with a carbonyl group, compounds were tested for their substrate properties against ALDH1A1, ALDH1A3, and ALDH3A1. […] Results are expressed as the percentage of activity at 10 μM versus the activity at 10 μM of their standard substrate (hexanal or 4-NBA). Values are expressed as the mean ± SE.
To calculate the Km value of compound 18 as a substrate for ALDH3A1, several concentrations of compound 18 were used. Experimental values were fitted to the adaptation of the Michaelis–Menten equation for substrate inhibition [drawing 1] and shown as the mean ± SE.

Assay [3] relates to DU145. Kind of assay: MTT chemosensitivity assay, DU145. It counts as cell-based, human. The following applies: Homo sapiens, DU-145, 96 h exposure, ± SD, at least three independent experiments. On the technique in general: Formazan colour is commonly taken as a measure of viable cells.

As for `CCCN(CCC)c1ccc(C=O)cc1Br` [Compound 14, 3-Bromo-4-(dipropylamino)benzaldehyde], the IC50 in assay [1] (mean ± SE) worked out at 0.63 ± 0.02 µM; in assay [3], 61 ± 5 µM. For the same molecule, the “type of inhibition ALDH1A3” value in assay [1] (hexanal as substrate) was “competitive”. Besides, the Ki in assay [1] (hexanal as substrate, fit to competitive inhibition equation, mean ± SE) was determined as 0.46 ± 0.15 µM. In addition, the “fold difference in capacity to inhibit ALDH1A3, 14 vs 13” value in assay [1] (ratio of IC50 values) is “approximately 17 fold”. Further, in assay [2], the ALDH3A1 substrate activity entry is “lower than 5%”.
Regarding `CCCN(CCC)c1ccc(C=O)cc1[N+](=O)[O-]` [Compound 18, 4-(Dipropylamino)-3-Nitrobenzaldehyde], the IC50 in assay [1] (mean ± SE) was 106 ± 16 µM; in assay [3], 100 ± 13 µM. Further, the ALDH3A1 substrate activity in assay [2] was 4.21%. Besides, the “Ksi as ALDH3A1 substrate” value in assay [2] (fit to substrate inhibition equation, mean ± SE) was determined as 113 ± 25 µM. Further, in assay [2] (mean ± SE), the Michaelis-Menten constant (Km) was determined as 2.82 ± 0.35 µM. For the same molecule, in assay [2] (mean ± SE), the “kcat as ALDH3A1 substrate” value came to 13.4 ± 0.7 min^–1.
